In ChEMBL document CHEMBL5325426, “Structure-based discovery of potent USP28 inhibitors derived from Vismodegib” (Eur J Med Chem, 2023):
Active and inactive are the calls of the source. The calls are words filed in the database; no cut-off is given here.

Experiments:
[1] = test system: HCT-116; test: Antiproliferative activity against human HCT-116 cells assessed as effect on Bcl-2 protein level at 30 to 100 uM incubated for 1 day by western blotting analysis; format: functional, cell-based; conditions: dose 30-100 µM
[2] = molecular target: T1, Ubiquitin carboxyl-terminal hydrolase 25 (Homo sapiens) (UniProt Q9UHP3); test: Inhibition of USP25 (unknown origin) expressed in Escherichia coli BL21 (DE3) using Ub-AMC as substrate at 5 uM by fluorescence based analysis
T1 sequence (whole entry): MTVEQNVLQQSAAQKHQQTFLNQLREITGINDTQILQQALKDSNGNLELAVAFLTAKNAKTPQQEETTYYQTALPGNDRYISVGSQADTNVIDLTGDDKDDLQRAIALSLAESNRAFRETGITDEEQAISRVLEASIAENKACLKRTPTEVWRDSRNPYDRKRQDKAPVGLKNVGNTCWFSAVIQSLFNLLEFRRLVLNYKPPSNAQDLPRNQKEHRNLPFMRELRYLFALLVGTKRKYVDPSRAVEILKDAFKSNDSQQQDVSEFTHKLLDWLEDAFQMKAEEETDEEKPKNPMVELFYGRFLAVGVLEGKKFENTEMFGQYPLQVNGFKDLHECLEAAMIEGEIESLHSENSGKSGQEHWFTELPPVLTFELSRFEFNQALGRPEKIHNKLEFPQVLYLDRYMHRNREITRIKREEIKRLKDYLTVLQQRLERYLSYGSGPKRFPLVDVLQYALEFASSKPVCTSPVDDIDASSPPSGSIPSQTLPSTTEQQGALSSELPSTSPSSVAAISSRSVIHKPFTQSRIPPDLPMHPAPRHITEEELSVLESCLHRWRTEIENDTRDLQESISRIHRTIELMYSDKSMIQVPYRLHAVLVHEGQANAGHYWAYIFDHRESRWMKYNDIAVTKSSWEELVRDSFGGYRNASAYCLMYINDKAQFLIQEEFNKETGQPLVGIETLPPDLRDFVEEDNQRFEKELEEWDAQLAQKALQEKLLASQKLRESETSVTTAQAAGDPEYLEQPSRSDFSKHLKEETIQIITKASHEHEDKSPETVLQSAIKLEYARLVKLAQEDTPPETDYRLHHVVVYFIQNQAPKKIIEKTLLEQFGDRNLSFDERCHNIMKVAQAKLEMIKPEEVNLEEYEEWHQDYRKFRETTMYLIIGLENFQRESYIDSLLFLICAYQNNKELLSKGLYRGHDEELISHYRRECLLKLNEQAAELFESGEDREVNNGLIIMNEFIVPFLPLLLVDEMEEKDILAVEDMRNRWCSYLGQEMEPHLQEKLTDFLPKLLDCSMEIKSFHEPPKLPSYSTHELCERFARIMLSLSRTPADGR

[3] = test system: LS174T; test: Inhibition of colony formation in human LS174T cells at 10 uM by crystal violet staining assay; format: functional, cell-based
[4] = test system: HCT-116; test: Inhibition of colony formation in human HCT-116 cells at 15 uM by crystal violet staining assay; format: functional, cell-based
[5] = molecular target: T1, Ubiquitin carboxyl-terminal hydrolase 25 (Homo sapiens); test: Inhibition of USP25 in human LS174T cells assessed as downregulation of Tankyrase 1/2 protein level; format: cell-based
[6] = test system: LS174T; test: Inhibition of colony formation in human LS174T cells at 12.5 uM by crystal violet staining assay; format: functional, cell-based
[7] = test system: HCT-116; test: Antiproliferative activity against human HCT-116 cells assessed as effect on Bcl-2 protein level at 30 to 80 uM incubated for 1 day by western blotting analysis; format: functional, cell-based; conditions: dose 30-80 µM
[8] = test system: LS174T; test: Inhibition of colony formation in human LS174T cells at 15 uM by crystal violet staining assay; format: functional, cell-based
[9] = test system: HCT-116; test: Inhibition of colony formation in human HCT-116 cells at 17.5 uM by crystal violet staining assay; format: functional, cell-based

inhibition [2] | inhibition [5] | SMILES | Activity [1] | inhibition [3] | inhibition [4] | inhibition [6] | Activity [7] | inhibition [8] | inhibition [9]
Active | – | CS(=O)(=O)c1ccc(C(=O)Nc2ccc(Cl)c(-c3ccc4c(c3)CCNC4)c2)c(Cl)c1 | inactive | Active | Active | – | – | – | –
Active | Active | CS(=O)(=O)c1ccc(C(=O)Nc2ccc(Cl)c(-c3ccc4c(c3)CNC4)c2)c(Cl)c1 | inactive | – | Active | Active | – | – | –
Active | – | CS(=O)(=O)c1ccc(C(=O)Nc2ccc(Cl)c(-c3ccc(C4(N)CC4)cc3)c2)c(Cl)c1 | – | – | – | – | inactive | Active | Active
